Experimental data from patent publication US20150045410A1, “METHOD OF REGULATING CFTR EXPRESSION AND PROCESSING” (University of Iowa Research Foundation, priority 2012, published 2015).

Tests used:
CFTR [1] = test: CFTR mRNA and protein in polarized primary cultures of human airway epithelia; type: cell-based; conditions: mRNA 24 hrs, protein 72 hrs post-transfection
Description: Airway epithelia from human trachea and primary bronchus removed from organs donated for research were cultured at the air-liquid interface (ALI) (Karp, P. H. et al. An in vitro model of differentiated human airway epithelia. Methods for establishing primary cultures. Methods Mol. Biol. 188, 115-137 (2002)). These studies were approved by the Institutional Review Board of the University of Iowa. Briefly, airway epithelial cells were dissociated from native tissue by pronase enzyme digestion. Permeable membrane inserts (0.6 cm^2 Millipore-PCF, 0.33 cm^2 Costar-Polyester) pre-coated with human placental collagen (IV, Sigma) were seeded with freshly dissociated epithelia. […]
First-strand cDNA was synthesized using SuperScript® II (Invitrogen), and oligo-dT and random-hexamer primers. […] To quantitate miRNAs, TaqMan® microRNA Assays (Applied Biosystems) were obtained for miR-138, RNU48 (control) and 8 other miRNAs (negative control, miRs-21, -24, -26a, -200c, -146a, -146b, -27a*, -134). […] All experiments were performed in quadruplicate. mRNA and miRNA quantification in cell lines represents 8 independent transfections in 4 separate experiments. mRNA quantification in human primary airway epithelial cultures represent 8 independent transfections in 8 non-CF donors and 4 CF donors. […]

CFTR [2] = test: Transepithelial conductance and current (Ussing chamber) in primary human airway epithelia; type: cell-based
Description: Airway epithelia from human trachea and primary bronchus removed from organs donated for research were cultured at the air-liquid interface (ALI) (Karp, P. H. et al. An in vitro model of differentiated human airway epithelia. Methods for establishing primary cultures. Methods Mol. Biol. 188, 115-137 (2002)). These studies were approved by the Institutional Review Board of the University of Iowa. Briefly, airway epithelial cells were dissociated from native tissue by pronase enzyme digestion. Permeable membrane inserts (0.6 cm^2 Millipore-PCF, 0.33 cm^2 Costar-Polyester) pre-coated with human placental collagen (IV, Sigma) were seeded with freshly dissociated epithelia. Seeding culture media used was DMEM/F-12 medium supplemented with 5% FBS, 50 units/mL penicillin, 50 μg/mL streptomycin, 50 μg/mL gentamicin, 2 μg/mL fluconazole, and 1.25 μg/mL amphotericin B. For epithelia from cystic fibrosis (CF) patients, the following additional antibiotics were used for the first 5 days: 77 μg/mL ceftazidime, 12.5 μg/mL imipenem and cilastatin, 80 μg/mL tobramycin, 25 μg/mL piperacillin and tazobactam, 20 μg/mL sulfamethoxazole, and 4 μg/mL trimethoprim. After seeding, the cultures were maintained in DMEM/F-12 medium supplemented with 2% Ultroser G (USG, Pall Biosepra) and the above listed antibiotics.
Transepithelial Cl^− current measurements were made in Ussing chambers about 2 weeks post-seeding (Itani, 0. A. et al. Human cystic fibrosis airway epithelia have reduced Cl− conductance but not increased Na+ conductance. Proc. Natl. Acad. Sci. USA 108, 10260-10265 (2011)). Briefly, primary cultures were mounted in a modified Ussing chamber (Jim's Instruments, 8 wells per instrument). Transepithelial Cl^− current was measured under short-circuit current conditions. Cultures were incubated overnight with 10 μM forskolin and 100 μM 3-isobutyl-1-methylxanthine (IBMX). After measuring baseline current, the transepithelial current (It) response to sequential apical addition of 100 μM amiloride (Amil), 100 μM 4,4′-diisothiocyanoto-stilbene-2,2′-disulfonic acid (DIDS), 4.8 mM [Cl^−], 10 μM forskolin and 100 μM 3-isobutyl-1-methylxanthine (IBMX), and 100 μM GlyH-101 was measured. Studies were conducted with a Cl^− concentration gradient containing 135 mM NaCl, 1.2 mM MgCl2, 1.2 mM CaCl2, 2.4 mM K2PO4, 0.6 mM KH2PO4, 5 mM dextrose, and 5 mM Hepes (pH 7.4) on the basolateral surface, and gluconate substituted for Cl^− on the apical side. […]

| Substance | CFTR mRNA and protein levels (CFTR [1]) | It (transepithelial current) response to cAMP-dependent stimulation (CFTR [2]) | cAMP-stimulated Gt (CFTR [2]) |
| --- | --- | --- | --- |
| SIN3A DsiRNA: Dicer-substrate siRNA against SIN3A, sense SEQ ID NO: 6, antisense SEQ ID NO: 7 (sense GCGAUACAUGAAUUCAGAUACUACC; antisense GGUAGUAUCUGAAUUCAUGUAUCGCUC; chemistry not given here) | increased | no change | increased |
| miR-138 mimic: synthetic modified RNA duplex, sense SEQ ID NO: 4, antisense SEQ ID NO: 5, showing miR-138-like activity | increased | no change | increased |
